Publication PMC10923520 (Science Advances, 2024)

Tested on: A549 (EGFR^WT) cells
Experiment: MTT cell viability inhibition assay, A549 cells
Type: cell-based
Conditions: Homo sapiens, A549, 72 h, read-out: IC50 (μM) A549 (EGFR^WT)

Q: How did the IC50 turn out when `C=CC(=O)Nc1cc(Nc2nccc(-c3cn(C)c4ccccc34)n2)c(OC)cc1N(C)CCN(C)C` [Osimertinib, osimertinib] was run?
A: 0.6864 ± 0.0045 µM
